The results in this text go back to PubChem BioAssay (NCI).

Some test systems named below: 786-0 renal; A549 NSCLC; HCT-15 colon; MCF7 breast; MDA-MB-435; OVCAR-3 ovarian; OVCAR-4 ovarian; SR leukemia; TK-10 renal; UO-31 renal.
What all share (assay): inhibition of tumour cell growth, NCI panel, 48 h

SMILES strings stand for the structures.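 Exposure lasted 48 hours, with cells grown in 96-well plates and compounds tested at five concentrations. GI50 marks 50% less growth. TGI: concentration producing complete growth inhibition.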 Some results are limits rather than exact numbers.

In the case of `CCN(CC)CCOc1nc2ccccc2c2c1-c1ccc(OC)cc1C2=O`, the GI50 in the assay on 786-0 renal was 1.17 µM; with A549 NSCLC, 0.514 µM; in the assay on HCT-15 colon it was 0.472 µM; in the assay with MCF7 breast, 0.345 µM; in the assay with MDA-MB-435, 0.881 µM; with OVCAR-3 ovarian it was 0.642 µM. Further, the GI50 in the assay with OVCAR-4 ovarian is 1.36 µM; in the assay with SR leukemia it was 0.316 µM; in the assay with TK-10 renal, 1.85 µM; in the assay on UO-31 renal it was 0.13 µM. Also, the TGI was found to be 2.68 µM with 786-0 renal; 4.55 µM with A549 NSCLC; 4.82 µM with HCT-15 colon; 2.23 µM with MCF7 breast; 2.36 µM in the assay on MDA-MB-435; 2.15 µM with OVCAR-3 ovarian. Further, the TGI in the assay with OVCAR-4 ovarian worked out at 6.83 µM; in the assay with SR leukemia, 1.07 µM; in the assay on TK-10 renal, 12.6 µM; in the assay with UO-31 renal it was 1.41 µM.

In the case of `N#C/C(=C\c1ccc[nH]1)c1cc(-c2ccc(Cl)cc2)nn1-c1ccccc1`, the GI50 in the assay with 786-0 renal was 6.06 µM; in the assay on A549 NSCLC it was 6.92 µM; with HCT-15 colon, 5.37 µM; with MCF7 breast, 0.449 µM; in the assay with MDA-MB-435, 2.7 µM; in the assay with OVCAR-3 ovarian, 2.37 µM. Moreover, the GI50 in the assay with OVCAR-4 ovarian is 1.73 µM; in the assay on SR leukemia, 1.97 µM; in the assay on TK-10 renal, 3.12 µM; with UO-31 renal, 3.82 µM. Moreover, the TGI in the assay with 786-0 renal is 27.5 µM; in the assay on A549 NSCLC, over 64.7 µM; with HCT-15 colon, 25.1 µM; in the assay with MCF7 breast, 19.7 µM; in the assay on MDA-MB-435, 13.2 µM; in the assay on OVCAR-3 ovarian, 8.69 µM. The TGI in the assay on OVCAR-4 ovarian was over 56.3 µM; in the assay with SR leukemia, 6.28 µM; in the assay with TK-10 renal it was 21.1 µM; in the assay on UO-31 renal it was 31 µM.

With `COC(=O)[C@]1(C)CCC[C@@]2(C)C3=C(CC[C@H]12)C[C@@H](CC(OC(C)=O)OC(C)=O)[C@@H](C)C3`, the GI50 was 8.97 µM in the assay on 786-0 renal; 15.4 µM with A549 NSCLC; 15.4 µM in the assay on HCT-15 colon; 7.99 µM with MCF7 breast; 9.96 µM in the assay on MDA-MB-435; 10.7 µM with OVCAR-3 ovarian. Further, the GI50 with OVCAR-4 ovarian was 14.4 µM; with SR leukemia it was 11.2 µM; in the assay with TK-10 renal, 13.5 µM; with UO-31 renal, 10.6 µM. Also, the TGI was 17.2 µM in the assay with 786-0 renal; over 43.6 µM in the assay with A549 NSCLC; over 40.7 µM in the assay with HCT-15 colon; 18.5 µM in the assay on MCF7 breast; 20.5 µM with MDA-MB-435; 27.9 µM in the assay with OVCAR-3 ovarian. Further, the TGI in the assay with OVCAR-4 ovarian was 47.4 µM; in the assay on SR leukemia, over 50 µM; in the assay on TK-10 renal it was 27.2 µM; with UO-31 renal it was 24.8 µM.

On to `COc1cc(OC)c(/C=C/C(=O)c2c(OC)cc(OC)cc2OC)c(OC)c1`, for which the GI50 was 2.02 µM with 786-0 renal; 1.72 µM in the assay with A549 NSCLC; 0.458 µM in the assay on HCT-15 colon; 1.41 µM in the assay on MCF7 breast; 0.235 µM in the assay with MDA-MB-435; 0.233 µM with OVCAR-3 ovarian. In addition, the GI50 with OVCAR-4 ovarian was 5.94 µM; with SR leukemia, 0.206 µM; in the assay with TK-10 renal, 3.31 µM; in the assay on UO-31 renal it was 2.23 µM. Further, the TGI was over 74.7 µM in the assay with 786-0 renal; over 76.3 µM in the assay with A549 NSCLC; 33.4 µM in the assay with HCT-15 colon; over 100 µM in the assay on MCF7 breast; 0.694 µM in the assay on MDA-MB-435; 0.8 µM with OVCAR-3 ovarian. For the same compound, the TGI is over 100 µM in the assay with OVCAR-4 ovarian, 0.761 µM in the assay on SR leukemia, over 100 µM in the assay on TK-10 renal and over 100 µM with UO-31 renal.

As for `O=C1C=CC2C3C(=O)N(c4ccccc4)C(=O)C3C1N2Cc1ccccc1` (stereo not given), the GI50 was 1.69 µM in the assay with 786-0 renal; 14.9 µM with A549 NSCLC; 1.74 µM in the assay on HCT-15 colon; 3.19 µM in the assay on MCF7 breast; 2.72 µM in the assay on MDA-MB-435; 3.45 µM in the assay on OVCAR-3 ovarian. Also, the GI50 with OVCAR-4 ovarian was 5.54 µM; in the assay on SR leukemia, 1.87 µM; in the assay with TK-10 renal, 8.08 µM; in the assay on UO-31 renal, 3.42 µM. For the same compound, the TGI was 3.62 µM in the assay with 786-0 renal; 29.7 µM with A549 NSCLC; 3.89 µM with HCT-15 colon; 11.5 µM with MCF7 breast; 8.05 µM in the assay with MDA-MB-435; 11.3 µM in the assay with OVCAR-3 ovarian. For the same compound, the TGI with OVCAR-4 ovarian is 17.7 µM; in the assay with SR leukemia, 7 µM; with TK-10 renal, 18.8 µM; with UO-31 renal, 6.79 µM.

As to `Oc1c(C(Nc2ccccn2)c2ccccc2)ccc2cccnc12` (stereo not given), the TGI in the assay on 786-0 renal was over 37.2 µM; with A549 NSCLC, over 100 µM; in the assay on HCT-15 colon, over 100 µM; with MCF7 breast, over 100 µM; in the assay on MDA-MB-435 it was over 100 µM; in the assay on OVCAR-3 ovarian it was 12.4 µM. The TGI with OVCAR-4 ovarian is 31.9 µM; in the assay with SR leukemia, over 22.6 µM; in the assay on TK-10 renal it was over 25.9 µM; in the assay on UO-31 renal it was 41.4 µM.

`CCCCCCCCN(CCCCCCCC)CC(O)c1cc(-c2ccccc2)nc2ccc(OC)cc12` (stereo not given): the GI50 in the assay on 786-0 renal is over 100 µM; with A549 NSCLC, over 100 µM; in the assay on HCT-15 colon, 23.2 µM; with MCF7 breast, 38.9 µM; in the assay on MDA-MB-435, 32.1 µM; in the assay on OVCAR-3 ovarian, 21.2 µM. Besides, the GI50 with OVCAR-4 ovarian is 51 µM; with SR leukemia, 10.1 µM; in the assay on TK-10 renal it was over 100 µM; with UO-31 renal, 34.4 µM. The TGI with 786-0 renal is over 100 µM; with A549 NSCLC, over 100 µM; with HCT-15 colon, over 100 µM; with MCF7 breast, over 100 µM; in the assay with MDA-MB-435, over 100 µM; in the assay with OVCAR-3 ovarian it was 61.2 µM. In addition, the TGI with OVCAR-4 ovarian was over 100 µM; with SR leukemia it was 97.3 µM; with TK-10 renal it was over 100 µM; in the assay on UO-31 renal, over 100 µM.

Take `Oc1c(C(c2ccc(F)cc2)N2CCCCC2)ccc2cncnc12` (stereo not given): the GI50 in the assay with 786-0 renal is 1.69 µM; in the assay on A549 NSCLC, 0.377 µM; with HCT-15 colon it was 2.11 µM; in the assay with MCF7 breast, 0.344 µM; in the assay on MDA-MB-435, 0.412 µM; with OVCAR-3 ovarian it was 0.783 µM. Besides, the GI50 in the assay with OVCAR-4 ovarian is 1.77 µM; with SR leukemia, 0.675 µM; in the assay on TK-10 renal, 1.35 µM; in the assay with UO-31 renal, 0.834 µM. The TGI was over 100 µM with 786-0 renal; over 51.3 µM with A549 NSCLC; over 100 µM in the assay on HCT-15 colon; over 39.4 µM with MCF7 breast; over 100 µM in the assay on MDA-MB-435; over 100 µM with OVCAR-3 ovarian. Further, the TGI with OVCAR-4 ovarian was over 100 µM; in the assay with SR leukemia, over 100 µM; in the assay on TK-10 renal, over 100 µM; in the assay on UO-31 renal it was 6.62 µM.
